Laboratory results published in patent US8771973B2, “Methods for treating bleeding disorders using sulfated polysaccharides” (Baxter Healthcare S.A., priority 2004, dated 2014).
Marks after values point to notes of the source that are not given here.

Key:
TFPI = molecular target: T1, TFPI (Homo sapiens, UniProt P10646); assay: dPT assay, inhibition of TFPI activity in Hem-A plasma without preincubation; assay type: biochemical; settings: no preincubation; for clotting time, dPT: Hem-A + TFPI, HemA + TFPI 183, alone 45 seconds
T1 construct: purchased American Diagnostica (Stamford, Conn.)
T1 sequence (P10646 29-304): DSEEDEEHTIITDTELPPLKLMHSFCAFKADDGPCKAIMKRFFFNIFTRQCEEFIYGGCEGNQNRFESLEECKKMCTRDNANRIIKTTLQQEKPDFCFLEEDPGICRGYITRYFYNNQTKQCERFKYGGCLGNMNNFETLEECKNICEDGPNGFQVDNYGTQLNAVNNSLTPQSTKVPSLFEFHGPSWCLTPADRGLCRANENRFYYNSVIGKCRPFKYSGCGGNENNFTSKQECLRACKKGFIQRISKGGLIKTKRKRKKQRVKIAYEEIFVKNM
Procedure: The dPT assay used was a modified standard clinical PT assay (Nordfang et al. (1991) Thromb Haemost 66:464-467; Welsch et al. (1991) Thrombosis Research 64: 213-222). SIMPLASTIN EXCEL thromboplastin reagent (Organon Teknika) was reconstituted with the manufacturer's diluent and further diluted 1:100 in 0.9% saline. The thromboplastin reagent, 25 mM CaCl2, and plasma samples were pre-warmed to 37° C. before initiating the assay. 100 μl of thawed plasma was aliquoted into microcentrifuge tubes. […] 100 μl of the diluted thromboplastin reagent and 100 μl of 25 mM CaCl2 were added to fibrin cups (Fisher) prewarmed to 37° C. 100 μl of plasma (normal or hemophilic) containing the test agent or saline control was added to the fibrin cups containing the thromboplastin reagent and CaCl2 to initiate clotting. The time for plasma clotting was measured with a BBL FIBROSYSTEM fibrometer.
Experiments were repeated without a preincubation of the sulfated polysaccharides with TFPI prior to exposure to plasma. To extend the stringency of the test for NASP inhibition of TFPI activity, TFPI was added to the plasma before the NASP was added.

Hem-B mice [1] = assay: Survival after tail clip, PPS-treated Hem-B mice; assay type: in vivo; settings: 0.06 mg/kg s.c. twice daily 4.5 days, vehicle 25, p = 0.07
Procedure: (§1) Hem-A mice (homozygous for the exon 16 FVIII KO allele) were licensed from John Hopkins University, and Hem-B mice (homozygous for the exon 1-3 FIX KO) were licensed from University of North Carolina at Chapel Hill. All animal procedures were performed according to “Guide for the Care and Use of Laboratory Animals” (National Research Council. Guide for the care and use of laboratory animals. Washington, D.C.: National Academy Press; 1996) and all procedures were reviewed and approved by an institutional animal care and use committee.
(§2) A. PPS Efficacy in Hem-A and Hem-B Mice The efficacy of PPS in improving clotting in Hem-A and Hem-B mice was tested. Hem-A and Hem-B male or female mice were administered PPS at a dose of 0.02, 0.06, or 0.2 mg/kg or saline vehicle subcutaneously twice daily for […]. On the morning of the fifth day after dosing, the tail was clipped 1 cm from the tip, and behavior and survival were monitored for the next 20-24 hours.

Hem-B mice [2] = assay: dPT clotting time of blood samples from Hem-B mice treated with PPS; assay type: in vivo; design: unit not given here
Procedure: The efficacy of PPS in improving clotting in Hem-B mice was further tested in dPT assays. All mice were bled prior to the study to establish baseline (pretest) clotting times. Mice (14 weeks old) were treated subcutaneously twice a day with PPS for 4.5 days at the following doses: 2, 0.3 and 0.06 mg/kg in a volume of 250 μl. Mice were bled after 4.5 days, and clotting times were determined from collected blood samples.

Hem-A mice [3] = assay: Survival after tail clip, PPS-treated Hem-A mice; assay type: in vivo
Procedure: as §1, §2

rats = settings: subcutaneously; cited from earlier work
rabbits = settings: intravenously at 10 mg/kg; cited from earlier work
Hem-A mice [4] = assay: Second fucoidan study, fucoidan +/- FVIII, survival of Hem-A mice after tail vein transection; assay type: in vivo; settings: fucoidan 0.1 mg/kg s.c. twice daily 4.5 days, FVIII 1.25% reconstitution 2 hours prior
Procedure: In a second study with fucoidan, combination therapy potential with factor VIII was evaluated. This study was performed as described above, except on the morning of the fifth day, mice received an intravenous bolus dose of 53 mU/mouse FVIII (about 1.25% of the normal level of FVIII) in a tail vein far up near the body. As before, the lateral tail vein, and not the artery, was transected 2 hours later at the region corresponding to a diameter of about 2.7 mm. […] Survival and clinical observations were recorded for 20-24 hours.

Hem-A mice [5] = assay: First fucoidan study, survival of Hem-A mice after bleeding test; assay type: in vivo; settings: vehicle 1/6
Procedure: Given the improved potency and magnitude of efficacy of fucoidan relative to PPS in some of the clotting assays described above, additional studies were performed in Hem-A mice with fucoidan. In the first study with fucoidan, nearly the same regimen as described for PPS was adopted, but with slightly different dose levels. Hem-A male mice were administered fucoidan at a dose of 0.1 or 1.0 mg/kg or saline subcutaneously twice daily for 4 days. On the morning of the 5th day, mice received a doubled dose of fucoidan prior to the bleeding test. Survival and animal behavior were evaluated for mice treated with fucoidan compared to vehicle controls.
In the first study, treatment of mice with fucoidan at a dose of 0.1 mg/kg appeared to be more efficacious than treatment at a dose of 1.0 mg/kg (survival at about 10 hours was 1/6 for vehicle, 4/6 for 0.1 mg/kg, and 3/6 for 1.0 mg/kg).

Row | Substance | clotting time, dPT (TFPI; 0.8 nM) | clotting time, dPT (TFPI; 4 nM) | clotting time, dPT (TFPI; 20 nM) | clotting time, dPT (TFPI; 100 nM) | clotting time, dPT (TFPI; 500 nM) | % Survival (20 hours post-cut) (Hem-B mice [1]) | Mean clotting time at 4.5 days (Hem-B mice [2]; 0.06 mg/kg s.c. twice a day) | Mean clotting time at 4.5 days (Hem-B mice [2]; 0.3 mg/kg s.c. twice a day) | Mean clotting time at 4.5 days (Hem-B mice [2]; 2.0 mg/kg s.c. twice a day) | % Survival (20 hours post-cut) (Hem-A mice [3]; 0.02 mg/kg s.c. twice daily 4.5 days, vehicle 25) | % Survival (20 hours post-cut) (Hem-A mice [3]; 0.06 mg/kg s.c. twice daily 4.5 days, vehicle 25, p = 0.07) | improvement in survival (Hem-A mice [3]; 0.06 mg/kg, not statistically significant (0.05<p<0.1)) | % Survival (20 hours post-cut) (Hem-A mice [3]; 0.2 mg/kg s.c. twice daily 4.5 days, vehicle 25) | doses required to prolong clotting (rats) | concentration window for significant clotting acceleration (TFPI; Hem A plasma + TFPI) | tolerability (rabbits) | % Survival 9 hr (Hem-A mice [4]; 9 hr after tail vein incision, vehicle 21) | % Survival 20 hr (Hem-A mice [4]; 20 hr after tail vein incision, vehicle 7) | survival at about 10 hours (Hem-A mice [5]; 0.1 mg/kg s.c. twice daily) | survival at about 10 hours (Hem-A mice [5]; 1.0 mg/kg s.c. twice daily)
1 | Pentosan Polysulphate Sodium [PPS] | 192 s | 156 s | 81 s | 76 s | 73 s | 44 ^# % | 37 | 38 | 44 | 20 ^ % | 44 ^# % | nearly two-fold improvement in survival | 40 ^ % | > 5 mg/kg |  |  |  |  |  | 
2 | Fucoidan | 210 s | 78 s | 59 s | 54 s | 90 s |  |  |  |  |  |  |  |  |  | greater than 100 fold | well-tolerated | 61 * % | 38 ^+ % | 4/6 | 3/6
